The values below come from ChEMBL document CHEMBL4270577, “Synthesis, anticancer activity and molecular modeling studies of 1,2,4-triazole derivatives as EGFR inhibitors” (Eur J Med Chem, 2018).

The term IC50 denotes the midpoint of a concentration-inhibition curve.

In one assay the test system is UACC-257. As to the kind of experiment: Growth inhibition of human UACC257 cells at 10 uM incubated for 48 hrs by sulforhodamine B assay relative to control. The class given is functional. To be noted: UACC-257, 48 h, read-out: GI. In general terms: In SRB staining, fixed cells bind dye roughly in proportion to their protein.
The test system of assay [1] is HT-29. Kind of assay: Growth inhibition of human HT-29 cells at 10 uM incubated for 48 hrs by sulforhodamine B assay relative to control. The following applies: HT-29, 48 h, read-out: GI. The class given is functional.
The next assay has as its system HOP-62. As to the kind of experiment: Growth inhibition of human HOP62 cells at 10 uM incubated for 48 hrs by sulforhodamine B assay relative to control. In kind it is functional. The following applies: HOP-62, 48 h, read-out: GI.
For another assay, the system named is K562. As to the kind of experiment: Growth inhibition of human K562 cells at 10 uM incubated for 48 hrs by sulforhodamine B assay relative to control. The class given is functional. To be noted: K562, 48 h, read-out: GI.
The next assay relates to SF-268. As to the kind of experiment: Growth inhibition of human SF268 cells at 10 uM incubated for 48 hrs by sulforhodamine B assay relative to control. The class given is functional. The following applies: SF-268, 48 h, read-out: GI.
In a further assay the test system is MDA-MB-435. Kind of assay: Growth inhibition of human MDA-MB-435 cells at 10 uM incubated for 48 hrs by sulforhodamine B assay relative to control. In kind it is functional. To be noted: MDA-MB-435, 48 h, read-out: GI.
The next assay relates to SW-620. As to the kind of experiment: Growth inhibition of human SW620 cells at 10 uM incubated for 48 hrs by sulforhodamine B assay relative to control. The class given is functional. The following applies: SW-620, 48 h, read-out: GI.
In a further assay the test system is T47D. As to the kind of experiment: Growth inhibition of human T47D cells at 10 uM incubated for 48 hrs by sulforhodamine B assay relative to control. The following applies: read-out: GI. The class given is functional.
A further assay deals with MIA PaCa-2. As to the kind of experiment: Antiproliferative activity against human MIAPaCa2 cells after 48 hrs by propidium iodide staining-based fluorometric analysis. In kind it is functional, cell-based. To be noted: MIA PaCa-2, 48 h.
Another assay has as its system UO-31. As to the kind of experiment: Growth inhibition of human UO31 cells at 10 uM incubated for 48 hrs by sulforhodamine B assay relative to control. In kind it is functional. The following applies: UO-31, 48 h, read-out: GI.
Another assay concerns NCI-H226. As to the kind of experiment: Growth inhibition of human NCI-H226 cells at 10 uM incubated for 48 hrs by sulforhodamine B assay relative to control. The class given is functional. To be noted: NCI-H226, 48 h, read-out: GI.
Another assay deals with CCRF-CEM. As to the kind of experiment: Growth inhibition of human CCRF-CEM cells at 10 uM incubated for 48 hrs by sulforhodamine B assay relative to control. The class given is functional. To be noted: read-out: GI.
A further assay relates to UACC-62. As to the kind of experiment: Growth inhibition of human UACC62 cells at 10 uM incubated for 48 hrs by sulforhodamine B assay relative to control. The following applies: UACC-62, 48 h, read-out: GI. The class given is functional.
The test system of another assay is NCI-H322M. As to the kind of experiment: Growth inhibition of human NCI-H322M cells at 10 uM incubated for 48 hrs by sulforhodamine B assay relative to control. The following applies: read-out: GI. The class given is functional.
In another assay the test system is SK-MEL-5. Kind of assay: Growth inhibition of human SK-MEL-5 cells at 10 uM incubated for 48 hrs by sulforhodamine B assay relative to control. In kind it is functional. To be noted: SK-MEL-5, 48 h, read-out: GI.
Another assay deals with TK-10. As to the kind of experiment: Growth inhibition of human TK10 cells at 10 uM incubated for 48 hrs by sulforhodamine B assay relative to control. To be noted: TK-10, 48 h, read-out: GI. The class given is functional.
A further assay concerns HOP-92. As to the kind of experiment: Growth inhibition of human HOP92 cells at 10 uM incubated for 48 hrs by sulforhodamine B assay relative to control. The following applies: HOP-92, 48 h, read-out: GI. The class given is functional.
The test system of another assay is SK-MEL-28. Kind of assay: Growth inhibition of human SK-MEL-28 cells at 10 uM incubated for 48 hrs by sulforhodamine B assay relative to control. The following applies: SK-MEL-28, 48 h, read-out: GI. In kind it is functional.
The test system of the next assay is A549. As to the kind of experiment: Growth inhibition of human A549/ATCC cells at 10 uM incubated for 48 hrs by sulforhodamine B assay relative to control. The class given is functional. To be noted: A549, 48 h, read-out: GI.
The subject of the next assay is U-251. Kind of assay: Growth inhibition of human U251 cells at 10 uM incubated for 48 hrs by sulforhodamine B assay relative to control. In kind it is functional. The following applies: U-251, 48 h, read-out: GI.
Another assay relates to SR. Kind of assay: Growth inhibition of human SR cells at 10 uM incubated for 48 hrs by sulforhodamine B assay relative to control. In kind it is functional. The following applies: read-out: GI.
Another assay has as its system RPMI-8226. As to the kind of experiment: Growth inhibition of human RPMI8226 cells at 10 uM incubated for 48 hrs by sulforhodamine B assay relative to control. The class given is functional. The following applies: RPMI-8226, 48 h, read-out: GI.
The test system of another assay is Malme-3M. Kind of assay: Growth inhibition of human MALME-3M cells at 10 uM incubated for 48 hrs by sulforhodamine B assay relative to control. The class given is functional. The following applies: read-out: GI.
The next assay deals with SNB-75. As to the kind of experiment: Growth inhibition of human SNB75 cells at 10 uM incubated for 48 hrs by sulforhodamine B assay relative to control. In kind it is functional. The following applies: SNB-75, 48 h, read-out: GI.
For a further assay, the system named is PANC-1. As to the kind of experiment: Antiproliferative activity against human PANC1 cells after 48 hrs by propidium iodide staining-based fluorometric analysis. The class given is functional, cell-based. The following applies: PANC-1, 48 h.
The next assay relates to SK-MEL-2. Kind of assay: Growth inhibition of human SK-MEL-2 cells at 10 uM incubated for 48 hrs by sulforhodamine B assay relative to control. The class given is functional. To be noted: SK-MEL-2, 48 h, read-out: GI.
The test system of assay [2] is HT-29. As to the kind of experiment: Antiproliferative activity against human HT-29 cells after 48 hrs by propidium iodide staining-based fluorometric analysis. In kind it is functional, cell-based. To be noted: HT-29, 48 h.
The subject of a further assay is NCI-H23. Kind of assay: Growth inhibition of human NCI-H23 cells at 10 uM incubated for 48 hrs by sulforhodamine B assay relative to control. The class given is functional. The following applies: NCI-H23, 48 h, read-out: GI.
The test system of a further assay is NCI-H460. As to the kind of experiment: Antiproliferative activity against human H460 cells after 48 hrs by propidium iodide staining-based fluorometric analysis. The class given is functional, cell-based. The following applies: NCI-H460, 48 h.
The test system of a further assay is HL-60(TB). Kind of assay: Growth inhibition of human HL-60(TB) cells at 10 uM incubated for 48 hrs by sulforhodamine B assay relative to control. The class given is functional. The following applies: HL-60, 48 h, read-out: GI.
A further assay has as its system A498. Kind of assay: Growth inhibition of human A498 cells at 10 uM incubated for 48 hrs by sulforhodamine B assay relative to control. The class given is functional. To be noted: A498, 48 h, read-out: GI.
In the next assay the test system is MOLT-4. As to the kind of experiment: Growth inhibition of human MOLT4 cells at 10 uM incubated for 48 hrs by sulforhodamine B assay relative to control. To be noted: MOLT-4, 48 h, read-out: GI. The class given is functional.
In another assay the test system is KM12. Kind of assay: Growth inhibition of human KM12 cells at 10 uM incubated for 48 hrs by sulforhodamine B assay relative to control. In kind it is functional. The following applies: KM12, 48 h, read-out: GI.
A further assay relates to SN12C. Kind of assay: Growth inhibition of human SN12C cells at 10 uM incubated for 48 hrs by sulforhodamine B assay relative to control. The class given is functional. The following applies: read-out: GI.
The test system of a further assay is SF-539. Kind of assay: Growth inhibition of human SF539 cells at 10 uM incubated for 48 hrs by sulforhodamine B assay relative to control. In kind it is functional. To be noted: SF-539, 48 h, read-out: GI.
In the next assay the test system is NCI-H522. Kind of assay: Growth inhibition of human NCI-H522 cells at 10 uM incubated for 48 hrs by sulforhodamine B assay relative to control. In kind it is functional. The following applies: NCI-H522, 48 h, read-out: GI.
The subject of a further assay is Hs-578T. As to the kind of experiment: Growth inhibition of human Hs 578T cells at 10 uM incubated for 48 hrs by sulforhodamine B assay relative to control. In kind it is functional. The following applies: read-out: GI.
For another assay, the system named is OVCAR-8. As to the kind of experiment: Growth inhibition of human OVCAR8 cells at 10 uM incubated for 48 hrs by sulforhodamine B assay relative to control. In kind it is functional. The following applies: OVCAR-8, 48 h, read-out: GI.
A further assay relates to MCF7. Kind of assay: Growth inhibition of human MCF7 cells at 10 uM incubated for 48 hrs by sulforhodamine B assay relative to control. The class given is functional. The following applies: MCF7, 48 h, read-out: GI.
The test system of the next assay is SK-OV-3. Kind of assay: Growth inhibition of human SKOV3 cells at 10 uM incubated for 48 hrs by sulforhodamine B assay relative to control. The following applies: SK-OV-3, 48 h, read-out: GI. In kind it is functional.
The test system of another assay is PC-3. As to the kind of experiment: Growth inhibition of human PC3 cells at 10 uM incubated for 48 hrs by sulforhodamine B assay relative to control. In kind it is functional. The following applies: PC-3, 48 h, read-out: GI.
A further assay concerns the target Tubulin (Homo sapiens) (UniProt P68371+Q9H4B7+P0DPH7+P68366+Q13509+Q71U36+P04350+Q3ZCM7+P07437+P68363+Q9BQE3+Q6PEY2+Q13885+Q9BVA1+Q9BUF5). Kind of assay: Inhibition of tubulin (unknown origin) polymerization assessed as polymerized tubulin level at 5 to 25 uM by fluorescence assay. In kind it is protein-complex assay.

SMILES strings stand for the structures.

For the molecule `COc1cc(-c2nc(N)n(CC(=O)Nc3ccc(/C(C)=N\O)cc3)n2)cc(OC)c1OC`, the inhibition of growth at 10 µM in the assay with UACC-257 is 36.3%; in the assay on HT-29 [1], 13.6%; in the assay on HOP-62 it was 5.54%; with K562, 3.93%; in the assay on SF-268, 6.49%; with MDA-MB-435 it was 18%. The inhibition of growth at 10 µM with SW-620 is 4.8%; in the assay on T47D, 8.77%; in the assay with UO-31 it was 20.5%; in the assay with NCI-H226, 5.19%; with CCRF-CEM, 15.5%; with UACC-62, 16.4%. In addition, the inhibition of growth at 10 µM in the assay with NCI-H322M was 5.82%; in the assay with SK-MEL-5, 2.08%; in the assay on TK-10, 9.11%; with HOP-92 it was 11.8%; in the assay on SK-MEL-28 it was 5.76%; with A549, 25.8%. The inhibition of growth at 10 µM in the assay with U-251 turned out to be 14.2%; with SR, 17%; in the assay on RPMI-8226 it was 5.69%; with Malme-3M, 3.25%; in the assay on SNB-75, 25.9%; in the assay on SK-MEL-2, 8%. Besides, the inhibition of growth at 10 µM with NCI-H23 turned out to be 4.21%; with HL-60(TB) it was 8.41%; with A498 it was 11.2%; with MOLT-4, 8.41%; in the assay with KM12, 2.75%; in the assay with SN12C it was 4%. In addition, the inhibition of growth at 10 µM with SF-539 is 2.92%; in the assay on NCI-H522, 29.2%; in the assay on Hs-578T, 17.9%; with OVCAR-8 it was 25.7%; in the assay with MCF7 it was 10.8%; in the assay on SK-OV-3, 12.1%. Besides, in the assay with PC-3, the inhibition of growth at 10 µM was 23.3%. Also, the concentration for half-maximal inhibition (IC50) with MIA PaCa-2 came out at 5.7 µM; in the assay on PANC-1, 5.2 µM; in the assay on HT-29 [2], 7.9 µM; in the assay with NCI-H460, 7.9 µM.

Take `CC[C@]1(O)C[C@H]2CN(CCc3c([nH]c4ccccc34)[C@@](C(=O)OC)(c3cc4c(cc3OC)N(C=O)[C@H]3[C@@](O)(C(=O)OC)[C@H](OC(C)=O)[C@]5(CC)C=CCN6CC[C@]43[C@@H]65)C2)C1`: the Activity at Tubulin (Homo sapiens) is 722 a.u.
